The text below walks through data of patent publication US7019109B2, “SSTR1-selective analogs” (The Salk Institute for Bilogical Studies, priority 2001, dated 2006).

*1 amine or outer side, *2 acyl side, *3 side chain or, on linkers, in order; H or OH if unused. Where a SMILES comes first, the peptide text is derived from it. Bridges are numbered along the chain shown (N, C = ends). [ ]: non-standard residue; d: D form. NMePhe(4-CH2NHiPr) = CN[C@@H](Cc1ccc(CNC(C)C)cc1)C(=O)O; Phe(4-CH2NHiPr) = CC(C)NCc1ccc(C[C@H](N)C(=O)O)cc1; Tyr(3-I) = N[C@@H](Cc1ccc(O)c(I)c1)C(=O)O; X1 = NC(=O)N[C@@H](CS[*:2])C(=O)[*:1]

Common to all, as to type: binding
One assay has as its target T1, human SSTR2 (Homo sapiens, UniProt P30874).
T1 construct: expressed in transfected cells; host or cells: CHO-K1 cells and CCL39 cells
The assay is described as follows: Displacement of 125I-[Leu8,D-Trp22,Tyr25]-SRIF-28 from cloned SSTR2 (receptor autoradiography). Conditions: for IC50: read-out: IC50 (nM) mSSTR2. The method, then:
(§1) Generally, recombinant cells expressing the receptor are washed and homogenized to prepare a crude protein homogenate that is frozen, embedded and then cut in 10–20 μm thin sections, as known in this art. Candidate substances, such as potential SRIF agonists and antagonists, are incubated with the tissue sections, and the interaction between the candidate substance and the receptor polypeptide is monitored.
(§2) Receptor binding assays are performed on cloned SRIF receptors as generally set forth in Reubi, J. C. et al., J. Clin. Endocrinol. […] Med. 2000, 27, 273–282.
(§3) In vitro Bioassay: The various somatostatin analogs are tested in vitro for their ability to bind to isolated cloned receptors expressed on CHO-K1 cells and CCL39 cells. CHO-K1 cells are grown in Ham's F-12 medium, and CCL39 cells are grown in Dulbecco's modified Eagle's medium/Ham's F-12(1:1) mix, supplemented with 10% fetal bovine serum, 100 U/ml penicillin and 100 μg/ml streptomycin, in humidified air containing 5% CO2 at 37° C.
(§4) Cells are washed and prepared to produce homogenates as described in detail in Reubi, J. C. et al, Eur. J. Nucl. Med. 2000, 27, 273–282.
Receptor autoradiography is performed on 20 μm thick cryostat sections of the membrane pellets, mounted on microscope slides, and then stored at −20° C. […] […] […] IC50 values are calculated after quantification of the data using a computer-assisted image processing system as known in this art.
(Loss of bound radioactivity is the signal in a displacement assay; it reports binding, not function.)

The next assay addresses T2, human SSTR1 (Homo sapiens, UniProt P30872).
T2 construct: expressed in transfected cells; host or cells: CHO-K1 cells and CCL39 cells
Nature of the assay: Displacement of 125I-[Leu8,D-Trp22,Tyr25]-SRIF-28 from cloned SSTR1 (receptor autoradiography). The settings on record: for binding strength and selectivity for SSTR1, in words: Peptide No. 27 and 2A after iodination. The protocol: as §1, §2, §3, §4
(§5) Receptor autoradiography is performed on 20 μm thick cryostat sections of the membrane pellets, mounted on microscope slides, and then stored at −20° C. […] Increasing concentrations of the unlabeled peptide are used ranging from 0.1–1000 nM. […] IC50 values are calculated after quantification of the data using a computer-assisted image processing system as known in this art.

The target of another assay is T3, human SSTR3 (Homo sapiens, UniProt P32745).
T3 construct: expressed in transfected cells; host or cells: CHO-K1 cells and CCL39 cells
T3 sequence (P32745 whole entry): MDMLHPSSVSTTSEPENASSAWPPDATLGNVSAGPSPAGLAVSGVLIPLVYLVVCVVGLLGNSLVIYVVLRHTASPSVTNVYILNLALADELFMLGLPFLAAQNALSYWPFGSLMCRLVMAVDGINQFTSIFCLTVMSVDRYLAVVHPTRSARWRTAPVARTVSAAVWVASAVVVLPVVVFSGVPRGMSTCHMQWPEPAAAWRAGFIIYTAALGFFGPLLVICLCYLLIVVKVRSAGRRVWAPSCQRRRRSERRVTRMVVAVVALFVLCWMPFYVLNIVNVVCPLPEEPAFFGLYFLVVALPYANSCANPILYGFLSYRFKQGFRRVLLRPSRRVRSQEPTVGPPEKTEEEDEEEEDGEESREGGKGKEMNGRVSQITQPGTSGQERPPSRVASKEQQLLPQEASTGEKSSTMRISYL
The assay is described as follows: Displacement of 125I-[Leu8,D-Trp22,Tyr25]-SRIF-28 from cloned SSTR3 (receptor autoradiography). The method, then:
as §1, §2, §3, §4, §5

The target in a further assay is T4, human SSTR4 (Homo sapiens, UniProt P31391).
T4 construct: expressed in transfected cells; host or cells: CHO-K1 cells and CCL39 cells
T4 sequence (P31391 whole entry): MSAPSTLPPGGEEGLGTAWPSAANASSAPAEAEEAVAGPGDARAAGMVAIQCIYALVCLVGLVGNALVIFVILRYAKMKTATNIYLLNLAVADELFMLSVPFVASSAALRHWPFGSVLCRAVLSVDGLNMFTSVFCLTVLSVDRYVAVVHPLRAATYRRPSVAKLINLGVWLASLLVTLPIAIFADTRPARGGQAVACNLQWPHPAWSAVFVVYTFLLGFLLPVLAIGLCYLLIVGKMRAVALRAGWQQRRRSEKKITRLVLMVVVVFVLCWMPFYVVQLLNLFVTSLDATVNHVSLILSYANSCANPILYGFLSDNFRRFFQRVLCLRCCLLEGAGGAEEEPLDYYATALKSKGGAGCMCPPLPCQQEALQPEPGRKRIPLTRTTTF
The assay is described as follows: Displacement of 125I-[Leu8,D-Trp22,Tyr25]-SRIF-28 from cloned SSTR4 (receptor autoradiography). The protocol:
as §1, §2, §3, §4, §5

T2 sequence (P30872 whole entry): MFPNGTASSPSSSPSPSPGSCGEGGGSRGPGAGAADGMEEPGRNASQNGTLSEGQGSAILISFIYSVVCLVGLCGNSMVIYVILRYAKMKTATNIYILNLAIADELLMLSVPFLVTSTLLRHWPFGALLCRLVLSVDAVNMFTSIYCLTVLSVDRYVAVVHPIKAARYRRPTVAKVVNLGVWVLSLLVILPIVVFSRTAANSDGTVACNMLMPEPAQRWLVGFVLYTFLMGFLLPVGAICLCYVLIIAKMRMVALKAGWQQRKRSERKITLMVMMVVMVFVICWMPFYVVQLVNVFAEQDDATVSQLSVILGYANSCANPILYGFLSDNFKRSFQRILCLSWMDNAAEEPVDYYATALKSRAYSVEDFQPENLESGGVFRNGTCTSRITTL
T1 sequence (P30874 whole entry): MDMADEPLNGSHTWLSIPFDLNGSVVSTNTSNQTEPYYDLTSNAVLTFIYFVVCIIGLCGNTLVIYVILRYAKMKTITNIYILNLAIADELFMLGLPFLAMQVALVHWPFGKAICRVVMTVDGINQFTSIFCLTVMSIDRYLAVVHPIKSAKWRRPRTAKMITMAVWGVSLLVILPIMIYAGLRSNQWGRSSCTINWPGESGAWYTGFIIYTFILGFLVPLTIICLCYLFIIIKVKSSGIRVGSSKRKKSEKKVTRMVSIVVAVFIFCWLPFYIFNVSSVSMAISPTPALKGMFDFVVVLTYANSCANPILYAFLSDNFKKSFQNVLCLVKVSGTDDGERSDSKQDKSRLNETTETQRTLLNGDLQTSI

On to `CC(C)NCc1ccc(C[C@@H]2NC(=O)[C@@H](Cc3c[nH]c4ccccc34)NC(=O)[C@H](Cc3ccccc3)NC(=O)[C@H](Cc3ccccc3)NC(=O)[C@H](CCCCN)NC(=O)[C@@H](NC(N)=O)CSSC[C@@H](C(=O)O)NC(=O)[C@H](CO)NC(=O)[C@H]([C@@H](C)O)NC(=O)[C@H](Cc3ccc(O)c(I)c3)NC(=O)[C@H]([C@@H](C)O)NC2=O)cc1` [Peptide No. 12B] (KFF[dW][Phe(4-CH2NHiPr)]T[Tyr(3-I)]TSC-OH; linker N-10 via X1), for which the IC50 on human SSTR2 was > 10000 nM.
Turning to `CC(C)NCc1ccc(C[C@H]2C(=O)N[C@@H]([C@@H](C)O)C(=O)N[C@@H](Cc3ccccc3)C(=O)N[C@@H]([C@@H](C)O)C(=O)N[C@@H](CO)C(=O)N[C@H](C(=O)O)CSSC[C@H](NC(=O)[C@@H](N)Cc3ccc(O)cc3)C(=O)N[C@@H](CCCCN)C(=O)N[C@@H](Cc3ccccc3)C(=O)N[C@@H](Cc3ccccc3)C(=O)N[C@H](Cc3c[nH]c4ccccc34)C(=O)N2C)cc1` [Peptide No. 27, (cyclo)H-Tyr-Cys-Lys-Phe-Phe-D-Trp-N^αMeIAmp-Thr-Phe-Thr-Ser-Cys-OH] (H-YCKFF[dW][NMePhe(4-CH2NHiPr)]TFTSC-OH; disulfide 2-12), the IC50 on human SSTR1 (inhibition of radioligand binding of 125I-[Leu8,D-Trp22,Tyr24]SRIF-28, cloned receptor, table, read-out: IC50 (nM) mSSTR1) was 25 nM; on human SSTR2, > 10000 nM; at human SSTR3 (read-out: IC50 (nM) mSSTR3), > 1000 nM; at human SSTR4 (inhibition of radioligand binding of 125I-[Leu8,D-Trp22,Tyr24]SRIF-28, cloned receptor, table, read-out: IC50 (nM) mSSTR4), 300 nM. Further, the “binding to SSTR2, in words” value on human SSTR2 (Peptide No. 27 iodinated) is given as “No specific binding”. The “binding to SSTR3, in words” value on human SSTR3 (Peptide No. 27 iodinated) is on record as “No specific binding”. Also, the “binding to SSTR4, in words” value at human SSTR4 (Peptide No. 27 iodinated) is reported as “No specific binding”.
As for “(cyclo 3-14)MeCbm-Cys-Lys-Phe-Phe-D-Trp-N^αMeIAmp-Thr-Tyr-Thr-Ser-Cys-OH [Peptide No. 17]”, the “binding strength and selectivity for SSTR1, in words” value (shortened to “binding strength and selectivity”) on human SSTR1 was “bind strongly and selectively”.
As to “(cyclo) (DOTA)Cys-Lys-Phe-Phe-D-Trp-N^αMeIAmp-Thr-Tyr-Thr-Ser-Cys-OH [Peptide No. 25]”, the “binding strength and selectivity” value at human SSTR1 is “continue to bind strongly and selectively”.
“(cyclo) (DPTA)Cys-Lys-Phe-Phe-D-Trp-N^αMeIAmp-Thr-Tyr-Thr-Ser-Cys-OH [Peptide No. 26]”: the “binding strength and selectivity” value on human SSTR1 was “continue to bind strongly and selectively”.
On to “(cyclo)Biucys-Lys-Phe-Phe-D-Trp-N^αMeIAmp-Thr-Tyr-Thr-Ser-Cys-OH [Peptide No. 18]”, for which, on human SSTR1, the “binding strength and selectivity” value was “bind strongly and selectively”.

Usually IC50 stands for the midpoint of a concentration-inhibition curve.
